We go through 63 compounds from US12162867B2, “Inhibitors of RNA helicase DHX9 and uses thereof” (ACCENT THERAPEUTICS, INC., priority 2022, dated 2024).

Where only a bound is given, the exact number is not on record here.

The first experiment deals with circBRIP1 in HCT116 cells. As to the kind of experiment: DHX9 circBRIP1 cellular target engagement TaqMan Multiplex assay (qPCR). The format is cell-based. Conditions: Homo sapiens, HCT-116, 72 h, circBRIP1, HCT116 cells, 72 hours; Taqman assay (marked *); read-out: DHX9 Cellular Target Engagement EC50.
For `Cc1sc(C(=O)Nc2cc(Cl)cc(NS(C)(=O)=O)c2)cc1-c1c(F)cncc1F` [Example 362], the EC50 was 0.124 µM.

With `CCS(=O)(=O)Nc1cc(Cl)cc(NC(=O)c2cc(-c3ncc(F)cc3C)c(C)s2)c1` [Example 350], the EC50 came to 0.257 µM.

In the case of `CS(=O)(=O)Nc1cc(Cl)cc(NC(=O)c2cc(-c3ncc(C(F)(F)F)cc3F)cs2)c1` [Example 371], the EC50 is 0.311 µM.

In the case of `Cc1sc(C(=O)Nc2cc(Cl)cc(NS(C)(=O)=O)c2)cc1-c1ncc(C(F)(F)F)cc1C#N` [Example 367], the EC50 was found to be 0.219 µM.

With `CCS(=O)(=O)Nc1cc(Cl)cc(NC(=O)c2cc(-c3ncc(F)cc3Cl)c(C)s2)c1` [Example 355], the concentration for a half-maximal effect (EC50) worked out at 0.362 µM.

As for `Cc1sc(C(=O)Nc2cc(Cl)cc(NS(C)(=O)=O)c2)cc1-c1ncc(C#N)cc1F` [Example 375], the concentration for a half-maximal effect (EC50) was determined as 0.68 µM.

For `Cc1cccnc1-c1csc(C(=O)Nc2cc(Cl)cc(N(C)S(C)(=O)=O)c2)c1` [Example 374], the 50% effective concentration (EC50) was > 10 µM.

With `Cc1cccnc1-c1csc(C(=O)Nc2cc(Cl)cc(NS(=O)(=O)C(C)C)c2)c1` [Example 373], the EC50 stood at 0.506 µM.

In the case of `Cc1sc(C(=O)Nc2cc(Cl)cc(NS(C)(=O)=O)c2)cc1-c1ncc(C(F)(F)F)cc1F` [Example 368], the EC50 was found to be 0.31 µM.

Staying with this experiment, now noted: Homo sapiens, HCT-116, circBRIP1, HCT116 cells; * Taqman assay was used; read-out: DHX9 Cellular Target Engagement EC50.
With `CCS(=O)(=O)Nc1cc(Cl)cc(NC(=O)c2cc(-c3ncc(OC(C)(C)C)cn3)c(C)s2)c1` [Example 566], the EC50 worked out at 0.156 µM.

As to `Cc1cc(C(=O)Nc2cc(Cl)cc(NS(C)(=O)=O)c2)cn1-c1ccc(OC(C)(C)C)cn1` [Example 663], the EC50 amounted to 0.124 µM.

For `CCCS(=O)(=O)Nc1cc(Cl)cc(NC(=O)c2cc(-c3ccc(N4CC(F)(F)C4)cn3)n(C)c2)c1` [Example 531], the EC50 is > 10 µM.

In the case of `Cn1cc(C(=O)Nc2cc(Cl)cc(NS(C)(=O)=O)c2)cc1-c1ccc(N2CCN(C(=O)C(C)(C)C)CC2)cn1` [Example 591], the EC50 was found to be 0.13 µM.

As for `CC(C)Oc1cnc(-c2csc(C(=O)Nc3cc(Cl)cc(NS(C)(=O)=O)c3)c2)c(F)c1` [Example 458], the concentration for a half-maximal effect (EC50) came out at 0.199 µM.

Consider `Cc1cccnc1-c1csc(C(=O)Nc2cc(Cl)cc(NS(C)(=O)=O)c2)c1C` [Example 684], for which the EC50 is > 10 µM.

As to `Cc1cc(C(=O)Nc2cc(Cl)cc(NS(C)(=O)=O)c2)cn1-c1ccc(N2CCOC2=O)cn1` [Example 416], the half-maximal effective concentration (EC50) stood at 0.133 µM.

As for `CC(C)Oc1cc(N2CC(F)(F)C2)cnc1-c1cc(C(=O)Nc2cc(Cl)cc(NS(C)(=O)=O)c2)cn1C` [Example 513], the EC50 was 0.133 µM.

In the case of `Cn1cc(C(=O)Nc2cc(Cl)cc(NS(C)(=O)=O)c2)cc1-c1cc(N2CC(F)(F)C2)ccn1` [Example 552], the EC50 amounted to 0.238 µM.

For the compound `CC(=O)N1CCN(c2cc(F)cnc2-c2cc(C(=O)Nc3cc(Cl)cc(NS(C)(=O)=O)c3)sc2C)CC1` [Example 504], the EC50 was 6.86 µM.

In the case of `CN1CC(Oc2cnc(-c3cc(C(=O)Nc4cc(Cl)cc(NS(C)(=O)=O)c4)cn3CC(F)F)nc2)C1` [Example 679], the EC50 is 0.196 µM.

In the case of `CCOc1cc(F)cnc1-c1cc(C(=O)Nc2cc(Cl)cc(NS(C)(=O)=O)c2)cn1C` [Example 561], the concentration giving a half-maximal response (EC50) turned out to be 0.274 µM.

Regarding `Cn1cc(C(=O)Nc2cc(Cl)cc(NS(C)(=O)=O)c2)cc1-c1ncc(F)cc1Cl` [Example 544], the half-maximal effective concentration (EC50) stood at 0.538 µM.

As to `CCS(=O)(=O)Nc1cc(Cl)cc(NC(=O)c2cc(C)n(-c3ncc(F)cc3Cl)c2)c1` [Example 446], the EC50 was 0.966 µM.

Regarding `Cn1cc(C(=O)Nc2cc(Cl)cc(NS(C)(=O)=O)c2)cc1-c1ccc(N2CCN(C(=O)C3CCC3)CC2)cn1` [Example 593], the half-maximal effective concentration (EC50) was 0.17 µM.

Turning to `Cc1sc(C(=O)Nc2cc(Cl)cc(NS(C)(=O)=O)c2)cc1-c1ncc(OC(C)C(=O)O)cn1` (stereo not drawn) [Example 671], the EC50 was > 10 µM.

Regarding `Cn1cc(C(=O)Nc2cc(Cl)cc(NS(C)(=O)=O)c2)cc1-c1ccc(N2CCN(C(=O)C3CC3)CC2)cn1` [Example 594], the EC50 was 0.14 µM.

With `Cn1cc(C(=O)Nc2cc(Cl)cc(NS(C)(=O)=O)c2)cc1-c1ccc(N2CCC3(C2)CC3(F)F)cn1` (stereo not drawn) [Example 495], the 50% effective concentration (EC50) worked out at 0.142 µM.

With `Cc1sc(C(=O)Nc2cc(Cl)cc(NS(C)(=O)=O)c2)cc1-c1ncc(O)cn1` [Example 583], the EC50 is 0.0431 µM.

As for `Cn1cc(C(=O)Nc2cc(Cl)cc(NS(C)(=O)=O)c2)cc1-c1ncc(N2CCC3(CC2)CC3)cc1F` [Example 468], the EC50 is 0.269 µM.

For `CCS(=O)(=O)Nc1cc(Cl)cc(NC(=O)c2cc(C)n(-c3ncc(F)cc3F)c2)c1` [Example 445], the concentration for a half-maximal effect (EC50) amounted to 0.319 µM.

Turning to `CS(=O)(=O)Nc1cc(Cl)cc(NC(=O)c2cc(-c3ncc(OC4CN(S(C)(=O)=O)C4)cn3)n(CC(F)(F)F)c2)c1` [Example 651], the half-maximal effective concentration (EC50) stood at 0.535 µM.

Take `Cn1cc(C(=O)Nc2cc(Cl)cc(NS(C)(=O)=O)c2)cc1-c1ncc(OC2CN(C(=O)C3CC3)C2)cc1F` [Example 697]: the concentration for a half-maximal effect (EC50) was 0.329 µM.

As for `Cc1cc(F)cnc1-c1cc(C(=O)Nc2cc(Cl)cc(NS(C)(=O)=O)c2)cn1C` [Example 545], the EC50 came out at 0.192 µM.

For the compound `Cc1cc(C(=O)Nc2cc(Cl)cc(NS(C)(=O)=O)c2)cn1-c1ncc(N2CCC(F)(F)C2)cn1` [Example 409], the EC50 came to 0.177 µM.

Turning to `Cn1cc(C(=O)Nc2cc(Cl)cc(NS(C)(=O)=O)c2)cc1-c1ncc(F)cc1OCc1nnnn1C` [Example 625], the 50% effective concentration (EC50) is 1.01 µM.

With `Cn1cc(C(=O)Nc2cc(Cl)cc(NS(C)(=O)=O)c2)cc1-c1ccc(N2CCN(C(=O)C3CCCC3)CC2)cn1` [Example 592], the half-maximal effective concentration (EC50) amounted to 0.303 µM.

For the compound `Cc1cc(N2CCC(F)(F)CC2)cnc1-c1cc(C(=O)Nc2cc(Cl)cc(NS(C)(=O)=O)c2)sc1C` [Example 602], the concentration for a half-maximal effect (EC50) was 0.18 µM.

For the compound `CCc1sc(C(=O)Nc2cc(Cl)cc(NS(C)(=O)=O)c2)cc1-c1ccc(F)cn1` [Example 589], the EC50 was 0.117 µM.

Take `Cc1cc(C(=O)Nc2cc(Cl)cc(NS(C)(=O)=O)c2)cn1-c1ncc(N2CC(F)(F)C2)cc1OC1CCC1` [Example 673]: the concentration giving a half-maximal response (EC50) came to 0.13 µM.

In the case of `CCS(=O)(=O)Nc1cc(Cl)cc(NC(=O)c2cc(-c3ncc(F)cc3F)n(C)c2)c1` [Example 543], the half-maximal effective concentration (EC50) turned out to be 0.183 µM.

Consider `CN1CC[C@@H](Oc2cnc(-c3cc(C(=O)Nc4cc(Cl)cc(NS(C)(=O)=O)c4)cn3CC(F)(F)F)nc2)C1` [Example 641], for which the 50% effective concentration (EC50) is 0.0552 µM.

As to `Cc1sc(C(=O)Nc2cc(Cl)cc(NS(C)(=O)=O)c2)cc1N1C(=O)N(C)C(C)(c2ccccn2)C1=O` (stereo not drawn) [Example 660], the EC50 was > 10 µM.

For the compound `CCS(=O)(=O)Nc1cc(Cl)cc(NC(=O)c2cc(-c3ncc(F)cn3)n(C)c2)c1` [Example 542], the EC50 was 0.307 µM.

For the compound `Cc1noc(C)c1COc1cc(F)cnc1-c1cc(C(=O)Nc2cc(Cl)cc(NS(C)(=O)=O)c2)cn1C` [Example 725], the EC50 amounted to 0.625 µM.

For the compound `COC1CCN(c2cc(F)cnc2-c2cc(C(=O)Nc3cc(Cl)cc(NS(C)(=O)=O)c3)sc2C)C1` (stereo not drawn) [Example 505], the EC50 is 0.219 µM.

For the compound `Cn1cc(C(=O)Nc2cc(Cl)cc(NS(C)(=O)=O)c2)cc1-c1ccc(N2CC3(C2)CC(F)(F)C3)cn1` [Example 498], the EC50 was found to be 0.131 µM.

For `Cc1cc(C(=O)Nc2cc(Cl)cc(NS(C)(=O)=O)c2)cn1-c1ccc(OC2COC2)cn1` [Example 668], the concentration giving a half-maximal response (EC50) turned out to be 0.22 µM.

Consider `Cc1cc(C(=O)Nc2cc(Cl)cc(NS(C)(=O)=O)c2)cn1-c1ncc(N2CC(F)(F)C2)cc1C(F)(F)F` [Example 407], for which the concentration for a half-maximal effect (EC50) came to 0.517 µM.

For `Cc1sc(C(=O)Nc2cc(Cl)cc(NS(=O)(=O)CCO)c2)cc1-c1ncc(N2CC(C(F)(F)F)C2)cc1F` [Example 529], the concentration for a half-maximal effect (EC50) was determined as 0.253 µM.

In the case of `Cc1cc(F)cc(C#N)c1-c1cc(C(=O)Nc2cc(Cl)cc(NS(C)(=O)=O)c2)cn1C` [Example 659], the EC50 was > 10 µM.

Take `Cc1cc(C(=O)Nc2cc(Cl)cc(NS(C)(=O)=O)c2)cn1-c1ncc(N2CCCC2=O)cn1` [Example 401]: the EC50 stood at 0.135 µM.

Turning to `CCc1sc(C(=O)Nc2cc(Cl)cc(NS(C)(=O)=O)c2)cc1-c1ncccc1F` [Example 587], the EC50 amounted to 0.128 µM.

Take `Cc1sc(C(=O)Nc2cc(Cl)cc(NS(C)(=O)=O)c2)c(F)c1-c1ncc(OC(C)C)cn1` [Example 683]: the EC50 is > 10 µM.

In the case of `CN1CC[C@H](Oc2cnc(-c3cc(C(=O)Nc4cc(Cl)cc(NS(C)(=O)=O)c4)cn3C)c(F)c2)C1` [Example 639, N-(3-chloro-5-methanesulfonamidophenyl)-5-(3-fluoro-5-{[(3S)-1-methylpyrrolidin-3-yl]oxy}pyridin-2-yl)-1-methylpyrrole-3-carboxamide], the half-maximal effective concentration (EC50) is 0.0266 µM.

For the compound `Cc1sc(C(=O)Nc2cc(Cl)cc(NS(C)(=O)=O)c2)cc1-c1ncc(C2(O)CN(C)C2)cc1F` [Example 681], the EC50 turned out to be 0.133 µM.

As for `Cc1sc(C(=O)Nc2cc(Cl)cc(NS(C)(=O)=O)c2)cc1-c1ncc(F)cc1N1CCN(S(C)(=O)=O)CC1` [Example 506], the concentration for a half-maximal effect (EC50) was 0.725 µM.

Regarding `Cc1cc(C(=O)Nc2cc(Cl)cc(NS(C)(=O)=O)c2)cn1-c1ncc(N2CC(F)(F)C2)cc1OC(C)C` [Example 672], the EC50 stood at 0.154 µM.

In the case of `CCS(=O)(=O)Nc1cc(Cl)cc(NC(=O)c2cc(-c3ncc(C(F)(F)F)cc3C)c(C)s2)c1` [Example 700], the EC50 was determined as 0.871 µM.

On to `Cc1sc(C(=O)Nc2cc(Cl)cc(NS(C)(=O)=O)c2)cc1-c1ncc(S(C)(=O)=O)cn1` [Example 711], for which the EC50 was found to be 0.17 µM.

For `Cc1sc(C(=O)Nc2cc(Cl)cc(NS(C)(=O)=O)c2)cc1-c1ccc(P(C)(C)=O)cn1` [Example 647], the EC50 amounted to 0.998 µM.

For the compound `COc1ccc(F)c(-c2cc(C(=O)Nc3cc(Cl)cc(NS(C)(=O)=O)c3)cn2C)n1` [Example 703], the EC50 stood at 0.387 µM.

Turning to `CN1CC[C@@H](Oc2cnc(-c3cc(C(=O)Nc4cc(Cl)cc(NS(C)(=O)=O)c4)cn3C)c(F)c2)C1` [Example 640], the EC50 came out at 0.0162 µM.

The experiment is the same for the next values; noted with them: Homo sapiens, HCT-116, read-out: DHX9 Cellular Target Engagement EC50 (μM).
Take `Cn1cc(C(=O)Nc2cc(Cl)cc(NS(C)(=O)=O)c2)cc1-c1ncc(N2CC[Si](C)(C)CC2)cc1F` [Example 470]: the 50% effective concentration (EC50) is 0.62 µM.
